Reference: patent US10112934B2, “(Cyano-dimethyl-methyl)-isoxazoles and -[1,3,4]thiadiazoles” (Centrexion Therapeutics Corporation, priority 2013, dated 2018)
pEC50: −log10 of the molar value.

biological target: human MDR1 P-gp (Homo sapiens (Human), UniProt P08183); assay: MDCK assay: efflux in MDCK cells transfected with the human MDR1 gene (assay 3); type: in vitro ADME; settings: MDCK-MDR1 cell monolayers, pH 7.4, 37° C., read-out: MDCK efflux ratio (BA/AB)
Experimental: C. Assessment of Efflux in Madin-Darby Canine Kidney Cells Transfected with the Human MDR1 Gene (MDCK Assay) (Assay 3)
Apparent permeability coefficients (PE) of the compounds across the MDCK-MDR1 cell monolayers are measured (pH 7.4, 37° C.) in apical-to-basal (AB) and basal-to-apical (BA) transport direction. AB permeability (PEAB) represents drug absorption from the blood into the brain and BA permeability (PEBA) drug efflux from the brain back into the blood via both passive permeability as well as active transport mechanisms mediated by efflux and uptake transporters that are expressed on the MDCK-MDR1 cells, predominantly by the overexpressed human MDR1 P-gp. The compounds are assigned to permeability/absorption classes by comparison of the AB permeabilities with the AB permeabilities of reference compounds with known in vitro permeability and oral absorption in the human. Identical or similar permeabilities in both transport directions indicate passive permeation, vectorial permeability points to additional active transport mechanisms. Higher PEBA than PEAB indicates the involvement of active efflux mediated by MDR1 P-gp. Active transport is concentration-dependently saturable.
MDCK-MDR1 cells (1-2×10e5 cells/1 cm2 area) are seeded on filter inserts (Costar transwell polycarbonate or PET filters, 0.4 μm pore size) and cultured (DMEM) for 7 days. Subsequently, the MDR1 expression is boosted by culturing the cells with 5 mM sodium butyrate in full medium for 2 days. Compounds are dissolved in appropriate solvent (like DMSO, 1-20 mM stock solutions). Stock solutions are diluted with HTP-4 buffer (128.13 mM NaCl, 5.36 mM KCl, 1 mM MgSO4, 1.8 mM CaCl2, 4.17 mM NaHCO3, 1.19 mM Na2HPO4×7H2O, 0.41 mM NaH2PO4×H2O, 15 mM HEPES, 20 mM glucose, 0.25% BSA, pH 7.4) to prepare the transport solutions (0.1-300 μM compound, final DMSO<=0.5%). The transport solution (TL) is applied to the apical or basolateral donor side for measuring A-B or B-A permeability (3 filter replicates), respectively. The receiver side contains the same buffer as the donor side. Samples are collected at the start and end of experiment from the donor and at various time intervals for up to 2 hours also from the receiver side for concentration measurement by HPLC-MS/MS or scintillation counting. Sampled receiver volumes are replaced with fresh receiver solution.

Chain of human MDR1 P-gp (P08183 whole entry): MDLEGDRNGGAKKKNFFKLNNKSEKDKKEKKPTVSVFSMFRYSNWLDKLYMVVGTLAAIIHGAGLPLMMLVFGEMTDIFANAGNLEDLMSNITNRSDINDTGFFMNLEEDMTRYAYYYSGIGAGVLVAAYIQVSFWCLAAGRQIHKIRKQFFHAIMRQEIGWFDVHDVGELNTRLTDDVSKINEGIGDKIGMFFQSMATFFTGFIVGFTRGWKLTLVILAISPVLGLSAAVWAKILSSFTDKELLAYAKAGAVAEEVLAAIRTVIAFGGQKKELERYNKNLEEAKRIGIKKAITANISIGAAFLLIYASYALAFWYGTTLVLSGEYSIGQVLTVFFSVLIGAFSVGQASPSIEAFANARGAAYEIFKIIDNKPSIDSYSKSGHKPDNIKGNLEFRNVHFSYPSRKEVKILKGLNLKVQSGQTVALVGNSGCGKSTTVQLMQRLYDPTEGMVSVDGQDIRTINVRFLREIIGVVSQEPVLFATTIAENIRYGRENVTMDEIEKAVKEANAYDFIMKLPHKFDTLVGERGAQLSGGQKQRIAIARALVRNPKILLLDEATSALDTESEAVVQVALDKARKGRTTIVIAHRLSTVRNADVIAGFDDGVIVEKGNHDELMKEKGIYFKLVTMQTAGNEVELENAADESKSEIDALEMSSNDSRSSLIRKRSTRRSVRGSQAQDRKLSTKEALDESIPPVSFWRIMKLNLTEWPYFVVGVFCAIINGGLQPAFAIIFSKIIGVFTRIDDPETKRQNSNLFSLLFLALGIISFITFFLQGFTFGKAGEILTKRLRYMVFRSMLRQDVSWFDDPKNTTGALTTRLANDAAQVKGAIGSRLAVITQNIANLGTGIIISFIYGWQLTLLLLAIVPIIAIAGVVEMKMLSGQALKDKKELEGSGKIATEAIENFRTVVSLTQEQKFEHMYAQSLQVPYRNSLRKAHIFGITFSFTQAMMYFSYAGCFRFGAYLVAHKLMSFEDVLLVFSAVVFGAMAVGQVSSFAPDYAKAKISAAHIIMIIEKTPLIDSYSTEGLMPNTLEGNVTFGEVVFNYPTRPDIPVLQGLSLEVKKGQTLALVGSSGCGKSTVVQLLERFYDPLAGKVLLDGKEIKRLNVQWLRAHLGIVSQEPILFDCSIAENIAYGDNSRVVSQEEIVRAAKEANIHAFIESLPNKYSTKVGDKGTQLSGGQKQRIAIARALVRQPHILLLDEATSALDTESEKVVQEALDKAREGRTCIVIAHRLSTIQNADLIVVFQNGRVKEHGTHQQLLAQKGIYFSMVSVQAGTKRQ

Structure (SMILES)	efflux ratio
CC(C)(CO)c1cc(NC(=O)C(C)(C)S(=O)(=O)CC2CCOCC2)on1 [Example 1 in WO2010036630]	16
CC(C)(C#N)c1cc(NC(=O)C(C)(C)S(=O)(=O)CCCC(F)(F)F)on1 [Example 1, N-[3-(Cyano-dimethyl-methyl)-isoxazol-5-yl]-2-methyl-2-(4,4,4-trifluoro-butane-1-sulfonyl)-propionamide]	2.2
CC(C)(CO)c1cc(NC(=O)C(C)(C)S(=O)(=O)C2CCOCC2)on1 [Example 2 in WO2010036630]	7.4
CC(C)(C#N)c1cc(NC(=O)C(C)(C)S(=O)(=O)CC2CCOCC2)on1 [Example 2, N-[3-(Cyano-dimethyl-methyl)-isoxazol-5-yl]-2-methyl-2-(tetrahydro-pyran-4-ylmethanesulfonyl)-propionamide]	6.5
CC(C)(C#N)c1cc(NC(=O)C(C)(C)S(=O)(=O)C2CCOCC2)on1 [Example 3]	2.5
CN(CC1CCOCC1)C(C)(C)C(=O)Nc1cc(C(C)(C)C#N)no1 [Example 4]	0.75
CN(C1CCN(S(C)(=O)=O)CC1)C(C)(C)C(=O)Nc1cc(C(C)(C)C#N)no1 [Example 5]	5.1
CN(CC1CCOCC1)C(C)(C)C(=O)Nc1cc(C(C)(C)CO)no1 [Example 7 in WO2010147792]	1.2
CN(CC1CCOCC1)C(C)(C)C(=O)Nc1nnc(C(C)(C)C#N)s1 [Example 7, N-[5-(Cyano-dimethyl-methyl)-[1,3,4]thiadiazol-2-yl]-2-methyl-2-[methyl-(tetrahydro-pyran-4-ylmethyl)-amino]-propionamide]	2.1
CN(C1CCN(S(C)(=O)=O)CC1)C(C)(C)C(=O)Nc1nnc(C(C)(C)C#N)s1 [Example 8]	16
COCC(C)(C)c1cc(NC(=O)C(C)(C)S(=O)(=O)CC2CCOCC2)on1 [Example 17 in WO2010036630]	4.8
CN(CC1CCOCC1)C(C)(C)C(=O)Nc1nnc(C(C)(C)CO)s1 [Example 30 in WO2010147792]	5.2
COCC(C)(C)c1cc(NC(=O)C(C)(C)S(=O)(=O)C2CCOCC2)on1 [Example 38 in WO2010036630]	2.3
COCC(C)(C)c1cc(NC(=O)C(C)(C)N(C)CC2CCOCC2)on1 [Example 46 in WO2010147792]	0.63
CN(C1CCN(S(C)(=O)=O)CC1)C(C)(C)C(=O)Nc1cc(C(C)(C)CO)no1 [Example 47 in WO2010147792]	14
CC(C)(O)c1cc(NC(=O)C(C)(C)S(=O)(=O)C2CCOCC2)on1 [Example 133 WO2010036630]	4.7

biological target: human CB1R (Homo sapiens (Human), UniProt P21554); assay: CB1 cAMP (assay 2); type: cell-based; settings: CHO cells expressing human CB1R; inhibition of forskolin-stimulated cAMP
Sequence (P21554 whole entry): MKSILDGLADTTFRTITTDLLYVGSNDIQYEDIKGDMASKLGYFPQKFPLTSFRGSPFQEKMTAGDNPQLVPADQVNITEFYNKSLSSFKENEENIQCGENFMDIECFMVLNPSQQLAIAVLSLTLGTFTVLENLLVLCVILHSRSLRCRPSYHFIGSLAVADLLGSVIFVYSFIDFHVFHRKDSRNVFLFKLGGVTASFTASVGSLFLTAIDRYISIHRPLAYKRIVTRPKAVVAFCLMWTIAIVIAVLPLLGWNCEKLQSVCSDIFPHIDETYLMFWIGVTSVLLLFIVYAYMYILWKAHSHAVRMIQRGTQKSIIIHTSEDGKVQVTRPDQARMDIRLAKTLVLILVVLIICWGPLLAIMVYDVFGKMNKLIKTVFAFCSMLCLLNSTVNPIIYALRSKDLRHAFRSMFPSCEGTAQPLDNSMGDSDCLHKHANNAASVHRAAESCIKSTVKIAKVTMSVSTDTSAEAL

Structure (SMILES)	pEC50
CC(C)(CO)c1cc(NC(=O)C(C)(C)S(=O)(=O)CC2CCOCC2)on1 [Example 1 in WO2010036630]	< 4.30
COCC(C)(C)c1cc(NC(=O)C(C)(C)S(=O)(=O)C2CCOCC2)on1 [Example 38 in WO2010036630]	4.30
